inhibition, Ki and IC50 data for 33 compounds are collected here from US7119105B2, “Methods for treating neurodegenerative disorders using aspartyl protease inhibitors” (The Regents of the University of California, priority 1997, dated 2006).

Each structure is given as a SMILES string. Where two headings read alike, the source gives them in different places. A value given as a limit tells only on which side of the number the result lay.

What is called inhibition is the drop in the measured response relative to a control, in per cent. In general, Ki refers to the equilibrium dissociation constant of an inhibitor or competing ligand from its target. The low end stands for tighter binding, the high end for weaker binding. In general, IC50 refers to the concentration needed to halve the response being measured. Low readings indicate inhibition by little substance, high ones a need for much substance.

One assay concerns the target T1, human liver cathepsin D (Homo sapiens, UniProt P07339).
T1 construct: human liver cathepsin D (Calbiochem); purchased Calbiochem; host or cells: human liver
In words: High-throughput fluorometric cathepsin D assay (library screen). In kind it is biochemical. Conditions: for inhibition at 0.1 µM: 100 nM inhibitor; for inhibition at 0.33 µM: read-out: Inhibition of Cathepsin D in Library Screen. The text has this:
Compounds capable of inhibiting cathepsin D can readily be identified using the assays described herein which measure a change in the hydrolysis of a peptide substrate. More particularly, a fluorometric high through-put assay for activity toward human liver cathepsin D (Calbiochem) can be used to screen the compounds of the present invention for their ability to inhibit cathepsin D. This assay was previously described by G. A. Kraft, et al., Methods Enzymol. 241, 70-86 (1994), the teachings of which are incorporated herein by reference. […] T. Baldwin, et al., Proc. Natl. Acad. Sci., U.S.A. 90, 6796-6800 (1993)). Generally, the reactants are mixed, the reaction is allowed to proceed for a specific period of time and the fluorescence of the reaction products is monitored to determine the extent to which the peptide substrate has been cleaved. […] 241, 70-86 (1994). As such, following the methods of the present invention, compounds can be readily synthesized and screened to identify compounds that inhibit cathepsin D. Briefly, a fluorometric high through-put assay for activity toward human liver cathepsin D (Calbiochem) was performed in 96-well microtiter plates (G. A. Krafft, et al., Methods Enymol. 241, 70-86 (1994)). […] T. Baldwin, et al., Proc. Natl. Acad. Sci., U.S.A. 90, 6796-6800 (1993)). The assay was performed in […] Microfluor fluorescence microtiter plates, and readings were taken on a Perkin-Elmer LS-50B with an attached 96-well plate reader. The excitation wavelength was 340 nm. A 340 nm interference filter (Hoya, U-340) for excitation and a 430 nm cut-off filter for emission were used. […] The fluorescent unit readings were taken at three time points within the linear region of the substrate cleavage, and percent activity of the enzyme was determined by comparing the change of fluorescent units (FU) for each well to the average change in FU for six control wells without inhibitor.

The target of a further assay is cathepsin D (Homo sapiens, UniProt P07339). In words: Cathepsin D cuvette assay for IC50 and inhibition constants (Ki). It counts as biochemical. The text has this: Compounds capable of inhibiting cathepsin D can readily be identified using the assays described herein which measure a change in the hydrolysis of a peptide substrate. More particularly, a fluorometric high through-put assay for activity toward human liver cathepsin D (Calbiochem) can be used to screen the compounds of the present invention for their ability to inhibit cathepsin D. This assay was previously described by G. A. Kraft, et al., Methods Enzymol. 241, 70-86 (1994), the teachings of which are incorporated herein by reference. […] T. Baldwin, et al., Proc. Natl. Acad. […] Generally, the reactants are mixed, the reaction is allowed to proceed for a specific period of time and the fluorescence of the reaction products is monitored to determine the extent to which the peptide substrate has been cleaved. […] 241, 70-86 (1994). As such, following the methods of the present invention, compounds can be readily synthesized and screened to identify compounds that inhibit cathepsin D. [table]
cathepsin D, sequence (P07339 65-412): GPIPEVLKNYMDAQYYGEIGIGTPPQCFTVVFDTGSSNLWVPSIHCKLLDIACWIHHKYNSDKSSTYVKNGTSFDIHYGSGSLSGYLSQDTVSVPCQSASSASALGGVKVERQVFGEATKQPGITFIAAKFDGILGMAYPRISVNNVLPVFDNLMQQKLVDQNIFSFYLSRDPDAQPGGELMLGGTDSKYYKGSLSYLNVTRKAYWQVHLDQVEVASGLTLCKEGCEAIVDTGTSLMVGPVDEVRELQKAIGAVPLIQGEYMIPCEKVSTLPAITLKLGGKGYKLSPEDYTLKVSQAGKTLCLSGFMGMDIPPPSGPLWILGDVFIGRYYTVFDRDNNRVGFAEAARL

Setting [1] is: crude compound, approximate concentration.
Where [2] appears, read: 330 nM inhibitor, crude compound, approximate concentration.
Where [3] appears, read: Table IV, substrate 2.5 μM, cathepsin D 10 nM, Ki ≈ IC50 − Et/2.
Setting [4] is: Table V second generation, conditions as Table IV.
Where [5] appears, read: Table V second generation, conditions as Table IV, Ki ≈ IC50 − Et/2.
The mark [6] stands for this setting: Table VI, P1-varied 204 compound library, purified.

T1 sequence (P07339 169-412 limits assumed): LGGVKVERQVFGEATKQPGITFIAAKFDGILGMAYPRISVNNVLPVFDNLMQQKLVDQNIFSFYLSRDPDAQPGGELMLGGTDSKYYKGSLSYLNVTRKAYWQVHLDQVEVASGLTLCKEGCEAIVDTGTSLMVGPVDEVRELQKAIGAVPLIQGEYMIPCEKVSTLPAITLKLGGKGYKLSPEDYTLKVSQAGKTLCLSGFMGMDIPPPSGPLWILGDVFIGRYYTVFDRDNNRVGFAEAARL
T1 sequence (P07339 65-162 limits assumed): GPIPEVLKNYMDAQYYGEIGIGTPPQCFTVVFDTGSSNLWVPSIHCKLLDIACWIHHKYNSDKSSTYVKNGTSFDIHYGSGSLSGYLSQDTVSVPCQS

For `O=C(CCn1c(=O)oc2ccccc21)N[C@@H](Cc1ccccc1)[C@@H](O)CN(CCc1ccc2c(c1)OCO2)C(=O)COc1c(Cl)cc(Cl)cc1Cl` [EAA], the inhibition at 0.1 µM against human liver cathepsin D (setting [1]) is not below 50%. Moreover, on human liver cathepsin D (setting [2]), the inhibition at 0.33 µM is not below 50%.
`COc1ccc(C(=O)N[C@@H](Cc2ccccc2)[C@@H](O)CN(CCc2ccc3c(c2)OCO3)C(=O)COc2c(Cl)cc(Cl)cc2Cl)c(Cl)c1OC` [EAJ]: the inhibition at 0.33 µM on human liver cathepsin D (setting [2]) is not below 50%.
Still for that read-out and setting: the figure for `O=C(N[C@@H](Cc1ccccc1)[C@@H](O)CN(CCc1ccc2c(c1)OCO2)C(=O)/C=C/c1cc2c(cc1Br)OCO2)c1ccc([N+](=O)[O-])cc1Cl` [EEF] is not below 50%.
On human liver cathepsin D (setting [1]), `O=C(CCn1c(=O)oc2ccccc21)N[C@@H](Cc1ccccc1)[C@@H](O)CN(CCc1ccc2c(c1)OCO2)C(=O)CCc1ccc(Cl)c(Cl)c1` [EFA] registered an inhibition at 0.1 µM not below 50%. For the same compound, the inhibition at 0.33 µM on human liver cathepsin D (setting [2]) is not below 50%. The same compound showed a Ki at cathepsin D (setting [3]) of 171 ± 25 nM.
For `O=C(COc1cc(Cl)c(Cl)cc1Cl)N[C@@H](Cc1ccccc1)[C@@H](O)CN(CCc1ccc2c(c1)OCO2)C(=O)CCc1ccc(Cl)c(Cl)c1` [EFD], the inhibition at 0.33 µM on human liver cathepsin D (setting [2]) is not below 50%.
Same read-out and setting: next, `O=C(CCN1C(=O)c2ccccc2C1=O)N[C@@H](Cc1ccccc1)[C@@H](O)CN(CCc1ccc2c(c1)OCO2)C(=O)CCc1ccc(Cl)c(Cl)c1` [EFH]: not below 50%; `O=C(CCc1ccc2c(c1)OCO2)N[C@@H](Cc1ccccc1)[C@@H](O)CN(CCc1ccc2c(c1)OCO2)C(=O)CCc1ccc(Cl)c(Cl)c1` [EFI]: not below 50%.
Turning to `COc1ccc(C(=O)N[C@@H](Cc2ccccc2)[C@@H](O)CN(CCc2ccc3c(c2)OCO3)C(=O)CCc2ccc(Cl)c(Cl)c2)c(Cl)c1OC` [EFJ], the inhibition at 0.33 µM at human liver cathepsin D (setting [2]) is not below 50%.
As to `COc1ccc(C(=O)N[C@@H](Cc2ccccc2)[C@@H](O)CN(CCc2ccc3c(c2)OCO3)C(=O)/C=C/c2c(Cl)cccc2Cl)c(Cl)c1OC` [EGJ], the inhibition at 0.33 µM on human liver cathepsin D (setting [2]) is not below 50%.
Consider `O=C(CCn1c(=O)oc2ccccc21)N[C@@H](Cc1ccccc1)[C@@H](O)CN(CCc1ccc2c(c1)OCO2)C(=O)CCN1C(=O)c2ccccc2C1=O` [EHA], for which the inhibition at 0.1 µM on human liver cathepsin D (setting [1]) was not below 50%. Also, the inhibition at 0.33 µM at human liver cathepsin D (setting [2]) was not below 50%. The compound also displayed a Ki at cathepsin D (setting [3]) of 131 ± 12 nM.
For `O=C(/C=C/c1c(Cl)cccc1Cl)N[C@@H](Cc1ccccc1)[C@@H](O)CN(CCc1ccc2c(c1)OCO2)C(=O)CCN1C(=O)c2ccccc2C1=O` [EHB], on human liver cathepsin D (setting [2]), the inhibition at 0.33 µM is not below 50%.
The compound `O=C(COc1cc(Cl)c(Cl)cc1Cl)N[C@@H](Cc1ccccc1)[C@@H](O)CN(CCc1ccc2c(c1)OCO2)C(=O)CCN1C(=O)c2ccccc2C1=O` [EHD] returned an inhibition at 0.1 µM against human liver cathepsin D (setting [1]) not below 50%. Moreover, the inhibition at 0.33 µM on human liver cathepsin D (setting [2]) is not below 50%. The compound also yielded a Ki at cathepsin D (setting [3]) of 73 ± 9 nM.
With `O=C(N[C@@H](Cc1ccccc1)[C@@H](O)CN(CCc1ccc2c(c1)OCO2)C(=O)CCN1C(=O)c2ccccc2C1=O)c1ccc([N+](=O)[O-])cc1Cl` [EHF], the inhibition at 0.33 µM at human liver cathepsin D was not below 50%.
With `O=C(CCN1C(=O)c2ccccc2C1=O)N[C@@H](Cc1ccccc1)[C@@H](O)CN(CCc1ccc2c(c1)OCO2)C(=O)CCN1C(=O)c2ccccc2C1=O` [EHH], the inhibition at 0.33 µM on human liver cathepsin D (setting [2]) is not below 50%.
`O=C(CCc1ccc2c(c1)OCO2)N[C@@H](Cc1ccccc1)[C@@H](O)CN(CCc1ccc2c(c1)OCO2)C(=O)CCN1C(=O)c2ccccc2C1=O` [EHI] yielded an inhibition at 0.1 µM at human liver cathepsin D (setting [1]) not below 50%. At human liver cathepsin D (setting [2]), the inhibition at 0.33 µM is not below 50%.
Regarding `COc1ccc(C(=O)N[C@@H](Cc2ccccc2)[C@@H](O)CN(CCc2ccc3c(c2)OCO3)C(=O)CCN2C(=O)c3ccccc3C2=O)c(Cl)c1OC` [EHJ], the inhibition at 0.1 µM on human liver cathepsin D (setting [1]) is not below 50%. Further, the inhibition at 0.33 µM on human liver cathepsin D (setting [2]) was not below 50%. The compound further returned a Ki at cathepsin D (setting [3]) of 111 ± 8 nM.
As for `O=C(COc1ccc(Cl)cc1Cl)N[C@@H](Cc1ccccc1)[C@@H](O)CN(CCc1ccc2c(c1)OCO2)C(=O)CCN1C(=O)c2ccccc2C1=O` [EHM], the IC50 on cathepsin D (setting [4]) stood at 14 ± 2 nM. The Ki on cathepsin D (setting [5]) stood at 9 nM.
In the same order, the values of `O=C(COc1ccc(Cl)c(Cl)c1)N[C@@H](Cc1ccccc1)[C@@H](O)CN(CCc1ccc2c(c1)OCO2)C(=O)CCN1C(=O)c2ccccc2C1=O` [EHO] are 19 ± 2 nM and 15 nM.
As for `O=C(COc1cccc(Cl)c1)N[C@@H](Cc1ccccc1)[C@@H](O)CN(CCc1ccc2c(c1)OCO2)C(=O)CCN1C(=O)c2ccccc2C1=O` [EHR], at cathepsin D (setting [4]), inhibition was half-maximal at 20 ± 2 nM (IC50). On cathepsin D (setting [5]), this compound showed an inhibitory constant (Ki) of 15 nM.
The like results for `COc1cc(Br)c(C(=O)N[C@@H](Cc2ccccc2)[C@@H](O)CN(CCc2ccc3c(c2)OCO3)C(=O)CCN2C(=O)c3ccccc3C2=O)cc1OC` [EHS] were, in that order, 64 ± 6 nM and 59 nM.
With `O=C(CCn1c(=O)oc2ccccc21)N[C@@H](Cc1ccccc1)[C@@H](O)CN(CCc1ccc(Cl)cc1Cl)C(=O)COc1c(Cl)cc(Cl)cc1Cl` [FAA], at human liver cathepsin D (setting [2]), the inhibition at 0.33 µM is not below 50%.
The same measure, in the same setting: the figure for `O=C(CCN1C(=O)c2ccccc2C1=O)N[C@@H](Cc1ccccc1)[C@@H](O)CN(CCc1ccc(Cl)cc1Cl)C(=O)COc1c(Cl)cc(Cl)cc1Cl` [FAH] is not below 50%; for `O=C(CCn1c(=O)oc2ccccc21)N[C@@H](Cc1ccccc1)[C@@H](O)CN(CCc1ccc(Cl)cc1Cl)C(=O)CCc1ccc(Cl)c(Cl)c1` [FFA] it is not below 50%; for `O=C(CCN1C(=O)c2ccccc2C1=O)N[C@@H](Cc1ccccc1)[C@@H](O)CN(CCc1ccc(Cl)cc1Cl)C(=O)CCc1ccc(Cl)c(Cl)c1` [FFH] it is not below 50%.
At human liver cathepsin D (setting [1]), `O=C(CCn1c(=O)oc2ccccc21)N[C@@H](Cc1ccccc1)[C@@H](O)CN(CCc1ccc(Cl)cc1Cl)C(=O)CCN1C(=O)c2ccccc2C1=O` [FHA] came in with an inhibition at 0.1 µM not below 50%. Further, the inhibition at 0.33 µM on human liver cathepsin D (setting [2]) is not below 50%. Besides, affinity on cathepsin D (setting [3]) was put at a Ki of 231 ± 31 nM.
For `O=C(N[C@@H](Cc1ccccc1)[C@@H](O)CN(CCc1ccc(Cl)cc1Cl)C(=O)CCN1C(=O)c2ccccc2C1=O)c1ccc([N+](=O)[O-])cc1Cl` [FHF], the inhibition at 0.33 µM at human liver cathepsin D (setting [2]) was not below 50%.
The same measure, in the same setting: next, `COc1ccc(C(=O)N[C@@H](Cc2ccccc2)[C@@H](O)CN(CCc2ccc(Cl)cc2Cl)C(=O)CCN2C(=O)c3ccccc3C2=O)c(Cl)c1OC` [FHJ]: not below 50%.
Consider `O=C(COc1ccc(Cl)c(Cl)c1)N[C@@H](Cc1ccccc1)[C@@H](O)CN(CCc1ccc(Cl)cc1Cl)C(=O)CCN1C(=O)c2ccccc2C1=O` [FHO], for which the midpoint of inhibition on cathepsin D (setting [4]), the IC50, lay at 18 ± 2 nM. At cathepsin D (setting [5]), this compound returned a Ki of 14 nM.
Consider `COc1cc(Br)c(C(=O)N[C@@H](Cc2ccc3ccccc3c2)[C@@H](O)CN(CCc2ccc(Cl)cc2Cl)C(=O)CCN2C(=O)c3ccccc3C2=O)cc1OC` [Gbcf], for which affinity at cathepsin D (setting [6]) was put at a Ki of 2.6 ± 0.2 nM.
On the same count and under the same terms, next, `COc1cc(Br)c(C(=O)N[C@@H](Cc2cccc(Oc3ccccc3)c2)[C@@H](O)CN(CCc2ccc(Cl)cc2Cl)C(=O)CCN2C(=O)c3ccccc3C2=O)cc1OC` [Kbcf]: 1.9 ± 0.2 nM.
Still for that read-out and setting: next, `COc1cc(Br)c(C(=O)N[C@@H](Cc2ccc(-c3ccccc3)cc2)C(O)CN(CCc2ccc(Cl)cc2Cl)C(=O)CCN2C(=O)c3ccccc3C2=O)cc1OC` (stereo partly drawn) [Obcf]: 2.6 ± 0.2 nM; `COc1cc(Br)c(C(=O)N[C@@H](Cc2ccc(Br)cc2)[C@@H](O)CN(CCc2ccc(Cl)cc2Cl)C(=O)CCN2C(=O)c3ccccc3C2=O)cc1OC` [Qbcf]: 6.7 ± 0.7 nM.
Compound `Cc1ccc(CCN(C[C@H](O)[C@H](Cc2ccccc2)NC(=O)COc2cc(Cl)c(Cl)cc2Cl)C(=O)CCN2C(=O)c3ccccc3C2=O)cc1` [UHD] had a half-maximal inhibitory concentration (IC50) at cathepsin D (setting [4]) of 229 ± 44 nM. The compound also returned a Ki at cathepsin D (setting [5]) of 224 nM.
